Test results from patent US8980933B2, “Combretastatin analogs for use in the treatment of cancer” (Universitat Bayreuth, priority 2010, dated 2015).

Tests used:
[1] = system: HL-60 cells; experiment: Mitochondrial membrane assay (JC-1), HL-60; assay type: cell-based, human; details: 5 μM, red/green fluorescence ratio relative to untreated controls (100%), mean ± SD
Experimental: Values represent means of four independent experiments±standard deviation.
Changes in mitochondrial membrane potential were determined by the Mitochondrial Membrane Detection Kit (Stratagene, La Jolla, Calif., USA) according to the manufacturer's procedure. 72 h following treatment with 5 μM of the test compounds, cell samples were centrifuged at 400 g for 5 min. The pellets were resuspended in 500 μL diluted JC-1 solution, incubated at 37° C. for 15 min (HL-60) and then centrifuged again for 5 min at 400 g. After washing, the pellets were resuspended in 100 μL PBS and transferred into the wells of a black 96-well plate. The red (λex=585 nm, λem=590 nm) and green (λex=510 nm, λem=527 nm) fluorescence intensities were measured and their ratio was calculated.

[2] = system: tubulin; experiment: Tubulin Polymerization assay (fluorescence kit); assay type: biochemical
Experimental: Analysis of tubulin polymerization was performed using the Tubulin Polymerization Assay Kit (Cytoskeleton, USA) according to manufacturer's instructions. The assay is fluorescence-based and tubulin polymerization was followed by measuring RFU (relative fluorescence units) on the SpectraFluor Plus (Tecan, Switzerland) using the following filters: excitation 360 nm, emission 465 nm.

Row | Structure (SMILES) | Intact mitochondria [%] in HL-60 cells after 72 h [1] | inhibition of tubulin polymerization [2]
1 | COc1ccc(-c2c(-c3cc(Br)c(OC)c(OC)c3)ncn2C)cc1N [compound 6b, 1-methyl-5-(3-amino-4-methoxyphenyl)-4-(3-bromo-4,5-dimethoxyphenyl)-imidazole] | 66 ± 10% | –
2 | COc1ccc(-c2c(-c3cc(Cl)c(OC)c(OC)c3)ncn2C)cc1N [compound 5b, 1-methyl-5-(3-amino-4-methoxyphenyl)-4-(3-chloro-4,5-dimethoxyphenyl)-imidazole] | – | effectively inhibits the polymerization of tubulin
